Legend:
[1] = system: oilseed rape; assay: Test D preemergence; assay type: in vivo, Brassica napus; details: Brassica napus, pre-emergence
In short: (§1)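 Values are 0–100 visual control ratings (0 none, 100 complete) given 7–21 days after application. Soil for preemergence was silt loam; postemergence plants stood 2–18 cm tall.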

[2] = system: wild buckwheat; assay: Test D preemergence; assay type: in vivo, Polygonum convolvulus; details: Fallopia convolvulus, pre-emergence
In short: as §1

[3] = system: bluegrass; assay: Test D postemergence; assay type: in vivo, Poa annua; details: Poa annua, post-emergence, Postemergence, scale 0 to 100 (0 no effect, 100 complete control), read-out: Plant response rating, Bluegrass
In short: as §1

[4] = system: Italian ryegrass; assay: Test D postemergence; assay type: in vivo, Lolium multiflorum; details: Lolium multiflorum, post-emergence
In short: as §1

[5] = system: bluegrass; assay: Test D preemergence; assay type: in vivo, Poa annua; details: Poa annua, pre-emergence
In short: as §1

[6] = system: wild buckwheat; assay: Test D postemergence; assay type: in vivo, Polygonum convolvulus; details: Fallopia convolvulus, post-emergence, Postemergence, scale 0 to 100 (0 no effect, 100 complete control), read-out: Plant response rating, Buckwheat, Wild
In short: as §1

[7] = system: speedwell; assay: Test D preemergence; assay type: in vivo, Veronica persica; details: Veronica persica, pre-emergence, 16 g ai/ha, scale 0 (no effect) to 100 (complete control), read-out: Plant response rating, Speedwell
In short: as §1

[8] = system: bromegrass, downy; assay: Test D postemergence; assay type: in vivo, Bromus tectorum; details: Bromus tectorum, post-emergence, Postemergence, scale 0 to 100 (0 no effect, 100 complete control), read-out: Plant response rating, Bromegrass, Downy
In short: as §1

[9] = system: chamomile; assay: Test D preemergence; assay type: in vivo, Matricaria inodora; details: Tripleurospermum inodorum, pre-emergence
In short: as §1

[10] = system: pigweed; assay: Test D postemergence; assay type: in vivo, Amaranthus retroflexus; details: Amaranthus retroflexus, post-emergence
In short: as §1

[11] = system: deadnettle; assay: Test D postemergence; assay type: in vivo, Lamium amplexicaule; details: Lamium amplexicaule, post-emergence
In short: as §1

[12] = system: wild mustard; assay: Test D postemergence; assay type: in vivo, Sinapis arvensis; details: Brassica, post-emergence
In short: as §1

SMILES: FC(F)(F)c1cnn(-c2ccccc2Oc2ncc(Br)cn2)c1 [Compound 18, 5-bromo-2-[2-[4-(trifluoromethyl)-1H-pyrazol-1-yl]phenoxy]pyrimidine]
- plant injury at 16 g/ha ([1]; 16 g ai/ha, scale 0 (no effect) to 100 (complete control), read-out: Plant response rating, Oilseed Rape): 40%
- plant injury at 31 g/ha ([1]; 31 g ai/ha, scale 0-100, read-out: Plant response rating, Oilseed Rape): 30%
- plant injury at 62 g/ha ([1]; 62 g ai/ha, scale 0-100, read-out: Plant response rating, Oilseed Rape): 100%
- plant injury at 125 g/ha ([1]; 125 g ai/ha, scale 0-100, read-out: Plant response rating, Oilseed Rape): 100%
- plant injury at 250 g/ha ([1]; 250 g ai/ha, scale 0-100, read-out: Plant response rating, Oilseed Rape): 100%
- pest or weed control at 16 g/ha ([2]; 16 g ai/ha, scale 0 (no effect) to 100 (complete control), read-out: Plant response rating, Buckwheat, Wild): 10%
- pest or weed control at 31 g/ha ([2]; 31 g ai/ha, scale 0-100, read-out: Plant response rating, Buckwheat, Wild): 70%
- pest or weed control at 62 g/ha ([2]; 62 g ai/ha, scale 0-100, read-out: Plant response rating, Buckwheat, Wild): 80%
- pest or weed control at 125 g/ha ([2]; 125 g ai/ha, scale 0-100, read-out: Plant response rating, Buckwheat, Wild): 100%
- pest or weed control at 250 g/ha ([2]; 250 g ai/ha, scale 0-100, read-out: Plant response rating, Buckwheat, Wild): 100%
- pest or weed control at 16 g/ha ([3]; 16 g ai/ha): 15%
- pest or weed control at 31 g/ha ([3]; 31 g ai/ha): 25%
- pest or weed control at 62 g/ha ([3]; 62 g ai/ha): 30%
- pest or weed control at 125 g/ha ([3]; 125 g ai/ha): 40%
- pest or weed control at 250 g/ha ([3]; 250 g ai/ha): 40%
- pest or weed control at 16 g/ha ([4]; 16 g ai/ha, scale 0-100, read-out: Plant response rating, Ryegrass, Italian): 5%
- pest or weed control at 31 g/ha ([4]; 31 g ai/ha, scale 0 to 100 (0 no effect, 100 complete control), read-out: Plant response rating, Ryegrass, Italian): 5%
- pest or weed control at 62 g/ha ([4]; 62 g ai/ha, scale 0 to 100 (0 no effect, 100 complete control), read-out: Plant response rating, Ryegrass, Italian): 5%
- pest or weed control at 125 g/ha ([4]; 125 g ai/ha, scale 0 to 100 (0 no effect, 100 complete control), read-out: Plant response rating, Ryegrass, Italian): 10%
- pest or weed control at 250 g/ha ([4]; 250 g ai/ha, scale 0 to 100 (0 no effect, 100 complete control), read-out: Plant response rating, Ryegrass, Italian): 15%
- pest or weed control at 16 g/ha ([5]; 16 g ai/ha, scale 0 (no effect) to 100 (complete control), read-out: Plant response rating, Bluegrass): 10%
- pest or weed control at 31 g/ha ([5]; 31 g ai/ha, scale 0-100, read-out: Plant response rating, Bluegrass): 30%
- pest or weed control at 62 g/ha ([5]; 62 g ai/ha, scale 0-100, read-out: Plant response rating, Bluegrass): 70%
- pest or weed control at 125 g/ha ([5]; 125 g ai/ha, scale 0-100, read-out: Plant response rating, Bluegrass): 100%
- pest or weed control at 250 g/ha ([5]; 250 g ai/ha, scale 0-100, read-out: Plant response rating, Bluegrass): 100%
- pest or weed control at 16 g/ha ([6]; 16 g ai/ha): 60%
- pest or weed control at 31 g/ha ([6]; 31 g ai/ha): 55%
- pest or weed control at 62 g/ha ([6]; 62 g ai/ha): 70%
- pest or weed control at 125 g/ha ([6]; 125 g ai/ha): 100%
- pest or weed control at 250 g/ha ([6]; 250 g ai/ha): 95%
- pest or weed control at 16 g/ha [7]: 50%
- pest or weed control at 16 g/ha ([8]; 16 g ai/ha): 15%
- pest or weed control at 31 g/ha ([8]; 31 g ai/ha): 15%
- pest or weed control at 62 g/ha ([8]; 62 g ai/ha): 15%
- pest or weed control at 125 g/ha ([8]; 125 g ai/ha): 20%
- pest or weed control at 250 g/ha ([8]; 250 g ai/ha): 15%
- pest or weed control at 16 g/ha ([9]; 16 g ai/ha, scale 0 (no effect) to 100 (complete control), read-out: Plant response rating, Chamomile): 5%
- pest or weed control at 31 g/ha ([9]; 31 g ai/ha, scale 0-100, read-out: Plant response rating, Chamomile): 5%
- pest or weed control at 125 g/ha ([9]; 125 g ai/ha, scale 0-100, read-out: Plant response rating, Chamomile): 50%
- pest or weed control at 250 g/ha ([9]; 250 g ai/ha, scale 0-100, read-out: Plant response rating, Chamomile): 55%
- pest or weed control at 16 g/ha ([10]; 16 g ai/ha, scale 0-100, read-out: Plant response rating, Pigweed): 65%
- pest or weed control at 31 g/ha ([10]; 31 g ai/ha, scale 0 to 100 (0 no effect, 100 complete control), read-out: Plant response rating, Pigweed): 75%
- pest or weed control at 62 g/ha ([10]; 62 g ai/ha, scale 0 to 100 (0 no effect, 100 complete control), read-out: Plant response rating, Pigweed): 75%
- pest or weed control at 125 g/ha ([10]; 125 g ai/ha, scale 0 to 100 (0 no effect, 100 complete control), read-out: Plant response rating, Pigweed): 95%
- pest or weed control at 250 g/ha ([10]; 250 g ai/ha, scale 0 to 100 (0 no effect, 100 complete control), read-out: Plant response rating, Pigweed): 95%
- pest or weed control at 16 g/ha ([11]; 16 g ai/ha, scale 0-100, read-out: Plant response rating, Deadnettle): 50%
- pest or weed control at 31 g/ha ([11]; 31 g ai/ha, scale 0 to 100 (0 no effect, 100 complete control), read-out: Plant response rating, Deadnettle): 65%
- pest or weed control at 62 g/ha ([11]; 62 g ai/ha, scale 0 to 100 (0 no effect, 100 complete control), read-out: Plant response rating, Deadnettle): 75%
- pest or weed control at 125 g/ha ([11]; 125 g ai/ha, scale 0 to 100 (0 no effect, 100 complete control), read-out: Plant response rating, Deadnettle): 90%
- pest or weed control at 250 g/ha ([11]; 250 g ai/ha, scale 0 to 100 (0 no effect, 100 complete control), read-out: Plant response rating, Deadnettle): 100%
- pest or weed control at 16 g/ha ([12]; 16 g ai/ha, scale 0-100, read-out: Plant response rating, Mustard, Wild): 60%
- pest or weed control at 31 g/ha ([12]; 31 g ai/ha, scale 0 to 100 (0 no effect, 100 complete control), read-out: Plant response rating, Mustard, Wild): 90%
- pest or weed control at 62 g/ha ([12]; 62 g ai/ha, scale 0 to 100 (0 no effect, 100 complete control), read-out: Plant response rating, Mustard, Wild): 70%
- pest or weed control at 125 g/ha ([12]; 125 g ai/ha, scale 0 to 100 (0 no effect, 100 complete control), read-out: Plant response rating, Mustard, Wild): 80%
- pest or weed control at 250 g/ha ([12]; 250 g ai/ha, scale 0 to 100 (0 no effect, 100 complete control), read-out: Plant response rating, Mustard, Wild): 100%

From patent publication US9695155B2, “Herbicidal substituted pyrimidinyloxy benzene compounds” (E. I. DU PONT DE NEMOURS AND COMPANY, priority 2013, dated 2017)
